One assay concerns DOHH2 cells. The assay can be described thus: Cell proliferation assay (MTS), DOHH2 cells, 120 h. The assay is classed as cell-based. The settings on record: Homo sapiens, DOHH-2, 120 h. The method in brief:
(§1)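 Cells in RPMI-1640 with 10% FBS were seeded at 5000/well, left overnight at 37° C., 5% CO2, then exposed to compound at 10000 down to 1.5 nM (nine concentrations) for 72 h (RS4;11) or 120 h (DOHH2). Viability was read by MTS, 2 h, absorbance at 490/650 nm; IC50 calculated.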

Another assay deals with RS4;11 cells. The assay can be described thus: Cell proliferation assay (MTS), RS4;11 cells, 72 h. It is filed as cell-based. The settings on record: Homo sapiens, RS4-11, 72 h. The method in brief: as §1

As a reminder, the pIC50 is the IC50 on a negative log10 scale, so that one unit is a factor of ten.

pIC50: −log10 of the molar value.

Regarding `CN(C)C[C@@H]1CSc2cc(S(=O)(=O)NC(=O)c3ccc(N4CCN(CC5=C(c6ccc(Cl)cc6)CC(C)(C)CC5)CC4)cc3Oc3cnc4[nH]ccc4c3)cc([N+](=O)[O-])c2N1` [Example 3-4, (R)-2-((1H-pyrrolo[2,3-b]pyridin-5-yl)oxy)-4-(4-((4′-chloro-5,5-dimethyl-3,4,5,6-tetra-hydro-[1,1′-biphenyl]-2-yl)methyl)piperazin-1-yl)-N-((3-((dimethylamino)methyl)-5-nitro-3,4-dihydro-2H-benzo[b][1,4]thiazin-7-yl)sulfonyl)benzamide], the negative-log IC50 (pIC50) with DOHH2 cells is 7.39; in the assay with RS4;11 cells it was 7.92.
As for `CC1(C)CCC(CN2CCN(c3ccc(C(=O)NS(=O)(=O)c4cc5c(c([N+](=O)[O-])c4)N[C@H](CO)CS5)c(Oc4cnc5[nH]ccc5c4)c3)CC2)=C(c2ccc(Cl)cc2)C1` [Example 3-5, (R)-2-((1H-pyrrolo[2,3-b]pyridin-5-yl)oxy)-4-(4-((4′-chloro-5,5-dimethyl-3,4,5,6-tetra-hydro-[1,1′-biphenyl]-2-yl)methyl)piperazin-1-yl)-N-((3-(hydroxymethyl)-5-nitro-3,4-dihydro-2H-benzo[b][1,4]thiazin-7-yl)sulfonyl) benzamide], the negative logarithm of the IC50 (pIC50) with DOHH2 cells is 7.92; in the assay with RS4;11 cells, 8.10.
For `COC[C@@H]1CSc2cc(S(=O)(=O)NC(=O)c3ccc(N4CCN(CC5=C(c6ccc(Cl)cc6)CC(C)(C)CC5)CC4)cc3Oc3cnc4[nH]ccc4c3)cc([N+](=O)[O-])c2N1` [Example 3-6, (R)-2-((1H-pyrrolo[2,3-b]pyridin-5-yl)oxy)-4-(4-((4′-chloro-5,5-dimethyl-3,4,5,6-tetra-hydro-[1,1′-biphenyl]-2-yl)methyl)piperazin-1-yl)-N-((3-(methoxymethyl)-5-nitro-3,4-dihydro-2H-benzo[b][1,4]thiazin-7-yl)sulfonyl)benzamide] the same measures were 7.85 and 8.10.
For `CC1(C)CCC(CN2CCN(c3ccc(C(=O)NS(=O)(=O)c4cc5c(c([N+](=O)[O-])c4)N[C@@H](CO)CS5)c(Oc4cnc5[nH]ccc5c4)c3)CC2)=C(c2ccc(Cl)cc2)C1` [Example 3-7, (S)-2-((1H-pyrrolo[2,3-b]pyridin-5-yl)oxy)-4-(4-((4′-chloro-5,5-dimethyl-3,4,5,6-tetra-hydro-[1,1′-biphenyl]-2-yl)methyl)piperazin-1-yl)-N-((3-(hydroxymethyl)-5-nitro-3,4-dihydro-2H-benzo[b][1,4]thiazin-7-yl)sulfonyl) benzamide], in that order: 7.51 and 8.00.
For `CN(C)C[C@H]1CSc2cc(S(=O)(=O)NC(=O)c3ccc(N4CCN(CC5=C(c6ccc(Cl)cc6)CC(C)(C)CC5)CC4)cc3Oc3cnc4[nH]ccc4c3)cc([N+](=O)[O-])c2N1` [Example 3-8, (S)-2-((1H-pyrrolo[2,3-b]pyridin-5-yl)oxy)-4-(4-((4′-chloro-5,5-dimethyl-3,4,5,6-tetra-hydro-[1,1′-biphenyl]-2-yl)methyl)piperazin-1-yl)-N-((3-((dimethylamino)methyl)-5-nitro-3,4-dihydro-2H-benzo[b][1,4]thiazin-7-yl)sulfonyl)benzamide], in that order: 7.17 and 7.77.
Take `CN1CCN(C[C@H]2CSc3cc(S(=O)(=O)NC(=O)c4ccc(N5CCN(CC6=C(c7ccc(Cl)cc7)CC(C)(C)CC6)CC5)cc4Oc4cnc5[nH]ccc5c4)cc([N+](=O)[O-])c3N2)CC1` [Example 3-9, (S)-2-((1H-pyrrolo[2,3-b]pyridin-5-yl)oxy)-4-(4-((4′-chloro-5,5-dimethyl-3,4,5,6-tetra-hydro-[1,1′-biphenyl]-2-yl)methyl)piperazin-1-yl)-N-((3-((4-methylpiperazin-1-yl)methyl)-5-nitro-3,4-dihydro-2H-benzo[b][1,4]thiazin-7-yl)sulfonyl)benzamide]: the pIC50 in the assay on DOHH2 cells is 7.62; in the assay with RS4;11 cells, 7.89.
For the compound `CC1(C)CCC(CN2CCN(c3ccc(C(=O)NS(=O)(=O)c4cc5c(c([N+](=O)[O-])c4)N[C@@H](CN4CCOCC4)CS5)c(Oc4cnc5[nH]ccc5c4)c3)CC2)=C(c2ccc(Cl)cc2)C1` [Example 3-10, (S)-2-((1H-pyrrolo[2,3-b]pyridin-5-yl)oxy)-4-(4-((4′-chloro-5,5-dimethyl-3,4,5,6-tetra-hydro-[1,1′-biphenyl]-2-yl)methyl)piperazin-1-yl)-N-((3-(morpholinomethyl)-5-nitro-3,4-dihydro-2H-benzo[b][1,4]thiazin-7-yl)sulfonyl)benzamide], the pIC50 is 7.49 with DOHH2 cells and 7.96 in the assay with RS4;11 cells.
On to `CC1(C)CCC(CN2CCN(c3ccc(C(=O)NS(=O)(=O)c4cc5c(c([N+](=O)[O-])c4)N[C@H](CCO)CS5)c(Oc4cnc5[nH]ccc5c4)c3)CC2)=C(c2ccc(Cl)cc2)C1` [Example 3-11, (R)-2-((1H-pyrrolo[2,3-b]pyridin-5-yl)oxy)-4-(4-((4′-chloro-5,5-dimethyl-3,4,5,6-tetra-hydro-[1,1′-biphenyl]-2-yl)methyl)piperazin-1-yl)-N-((3-(2-hydroxyethyl)-5-nitro-3,4-dihydro-2H-benzo[b][1,4]thiazin-7-yl)sulfonyl) benzamide], for which the negative-log IC50 (pIC50) in the assay with DOHH2 cells is 7.80; in the assay on RS4;11 cells it was 7.96.
For `COCC[C@@H]1CSc2cc(S(=O)(=O)NC(=O)c3ccc(N4CCN(CC5=C(c6ccc(Cl)cc6)CC(C)(C)CC5)CC4)cc3Oc3cnc4[nH]ccc4c3)cc([N+](=O)[O-])c2N1` [Example 3-12, (R)-2-((1H-pyrrolo[2,3-b]pyridin-5-yl)oxy)-4-(4-((4′-chloro-5,5-dimethyl-3,4,5,6-tetra-hydro-[1,1′-biphenyl]-2-yl)methyl)piperazin-1-yl)-N-((3-(2-methoxyethyl)-5-nitro-3,4-dihydro-2H-benzo[b][1,4]thiazin-7-yl)sulfonyl)benzamide], in that order: 6.92 and 7.08.
For `CN(C)CC[C@@H]1CSc2cc(S(=O)(=O)NC(=O)c3ccc(N4CCN(CC5=C(c6ccc(Cl)cc6)CC(C)(C)CC5)CC4)cc3Oc3cnc4[nH]ccc4c3)cc([N+](=O)[O-])c2N1` [Example 3-13, (R)-2-((1H-pyrrolo[2,3-b]pyridin-5-yl)oxy)-4-(4-((4′-chloro-5,5-dimethyl-3,4,5,6-tetra-hydro-[1,1′-biphenyl]-2-yl)methyl)piperazin-1-yl)-N-((3-(2-(dimethylamino)ethyl)-5-nitro-3,4-dihydro-2H-benzo[b][1,4]thiazin-7-yl)sulfonyl)benzamide] the same measures were 8.70 and 8.70.
For `CN1CCN(CC[C@@H]2CSc3cc(S(=O)(=O)NC(=O)c4ccc(N5CCN(CC6=C(c7ccc(Cl)cc7)CC(C)(C)CC6)CC5)cc4Oc4cnc5[nH]ccc5c4)cc([N+](=O)[O-])c3N2)CC1` [Example 3-14, (R)-2-((1H-pyrrolo[2,3-b]pyridin-5-yl)oxy)-4-(4-((4′-chloro-5,5-dimethyl-3,4,5,6-tetra-hydro-[1,1′-biphenyl]-2-yl)methyl)piperazin-1-yl)-N-((3-(2-(4-methylpiperazin-1-yl)ethyl)-5-nitro-3,4-dihydro-2H-benzo[b][1,4]thiazin-7-yl)sulfonyl)benzamide], in that order: 8.05 and 8.40.
In the case of `CC1(C)CCC(CN2CCN(c3ccc(C(=O)NS(=O)(=O)c4cc5c(c([N+](=O)[O-])c4)N[C@@H](CCO)CS5)c(Oc4cnc5[nH]ccc5c4)c3)CC2)=C(c2ccc(Cl)cc2)C1` [Example 3-15, (S)-2-((1H-pyrrolo[2,3-b]pyridin-5-yl)oxy)-4-(4-((4′-chloro-5,5-dimethyl-3,4,5,6-tetra-hydro-[1,1′-biphenyl]-2-yl)methyl)piperazin-1-yl)-N-((3-(2-hydroxyethyl)-5-nitro-3,4-dihydro-2H-benzo[b][1,4]thiazin-7-yl)sulfonyl) benzamide], the pIC50 with DOHH2 cells was 7.32; in the assay on RS4;11 cells, 7.89.
For `COCC[C@H]1CSc2cc(S(=O)(=O)NC(=O)c3ccc(N4CCN(CC5=C(c6ccc(Cl)cc6)CC(C)(C)CC5)CC4)cc3Oc3cnc4[nH]ccc4c3)cc([N+](=O)[O-])c2N1` [Example 3-16, (S)-2-((1H-pyrrolo[2,3-b]pyridin-5-yl)oxy)-4-(4-((4′-chloro-5,5-dimethyl-3,4,5,6-tetra-hydro-[1,1′-biphenyl]-2-yl)methyl)piperazin-1-yl)-N-((3-(2-methoxyethyl)-5-nitro-3,4-dihydro-2H-benzo[b][1,4]thiazin-7-yl)sulfonyl)benzamide] the same measures were 6.88 and 7.48.
For `CS(=O)OCC[C@H]1CSc2cc(S(=O)(=O)NC(=O)c3ccc(N4CCN(CC5=C(c6ccc(Cl)cc6)CC(C)(C)CC5)CC4)cc3Oc3cnc4[nH]ccc4c3)cc([N+](=O)[O-])c2N1` (stereo partly drawn) [Example 3-17, 2-((S)-7-(N-(2-((1H-pyrrolo[2,3-b]pyridin-5-yl)oxy)-4-(4-((4′-chloro-5,5-dimethyl-3,4,5,6-tetrahydro-[1,1′-biphenyl]-2-yl)methyl)piperazin-1-yl)benzoyl)sulfamoyl)-5-nitro-3,4-dihydro-2H-benzo[b][1,4]thiazin-3-yl) ethyl methanesulfinate], in that order: 7.31 and 7.72.
Turning to `CC1(C)CCC(CN2CCN(c3ccc(C(=O)NS(=O)(=O)c4cc5c(c([N+](=O)[O-])c4)N[C@@H](CCS(C)(=O)=O)CS5)c(Oc4cnc5[nH]ccc5c4)c3)CC2)=C(c2ccc(Cl)cc2)C1` [Example 3-18, (S)-2-((1H-pyrrolo[2,3-b]pyridin-5-yl)oxy)-4-(4-((4′-chloro-5,5-dimethyl-3,4,5,6-tetra-hydro-[1,1′-biphenyl]-2-yl)methyl)piperazin-1-yl)-N-((3-(2-(methylsulfonyl)ethyl)-5-nitro-3,4-dihydro-2H-benzo[b][1,4]thiazin-7-yl)sulfonyl)benzamide], the pIC50 with DOHH2 cells was 7.27; in the assay with RS4;11 cells, 7.70.
